In US7579356B2, “Thia-tetraazaacenaphthylene kinase inhibitors” (Janssen Pharmaceutica NV, priority 2005, dated 2009) one finds IC50 and inhibition data, which are given here for 15 compounds.

A word on the IC50: it is the concentration needed to halve the response being measured. As usually defined, the inhibition is the relative decrease from the control value, in per cent.

For one experiment, the target named is T1, EGFR (Homo sapiens, UniProt P00533).
T1 construct: The intracellular portion of EGFR started at nucleotide 2189 (corresponding to amino acid 667) and ended at the termination codon; made in house; host or cells: Sf9 insect cells (baculovirus)
Briefly: EGFR Kinase Assay. The format is biochemical. The following applies: for IC50: GST-EGFR, ATP 5 μM; for inhibition at 2 µM: test concentration of 2 μM, compounds without an IC50, read-out: EGFR inhibition in percent. From the text: The EGFR kinase used was a fusion of Glutathione-S-Transferase (GST) and a PCR amplified intracellular portion of EGFR (Accession Number NM_005228). The intracellular portion of EGFR started at nucleotide 2189 (corresponding to amino acid 667) and ended at the termination codon. The portion was PCR amplified with primers that added the lambda attB sequences to each end, recombined into an entry vector, then into a GST destination vector (as described in Gateway Technologies Manual by Invitrogen Corporation, Carlsbad, Calif.).
The destination vector was recombined in the DH10BAC strain of bacteria to produce a bacmid. The bacmid was transfected into Sf 9 cells and the supernatant containing the baculovirus was collected. The GSTEGFR protein was purified using large cultures of Sf 9 cells infected with stock virus. After an appropriate period of time, the cells were collected and lysed. The GSTEGFR was then purified from the lysate on Glutathione-Sepharose columns (as described by Amersham Biosciences, Buckinghamshire, United Kingdom).
The EGFR substrate was prepared by biotinylating polyGluTyr (128 mg) (Sigma, St. Louis, Mo.) in a 1×PBS buffer incubated together with a 12-fold molar excess of Sulfo-NHS-LC-Biotin on ice for at least 2 hrs. The free biotin was separated from the biotinylated polyGluTyr on a gel filtration column.
A mixture of a 10× kinase buffer (500 mM Tris at pH 8.0, 100 mM Magnesium Chloride and 1 mM Sodium Vanadate), DTT (1 mM final from 500 mM stock), ATP (5 μM final from 10 mM stock), biotinylated polyGluTyr (10 μg/μL stock), γ-^33P ATP (10 μCl/μL stock) and water was added to each well (for a total of 90 μL/well) of a Streptavidin Flashplate (Perkin Elmer, Wellesley, Mass.).
Test compound in 100% DMSO (2 μL) was added to the appropriate wells. Diluted GSTEGFR (1:300 dilution in 50 mM Tris at pH 8.0 and 0.1% bovine serum albumin) (10 μL) was added to the wells to initiate the reactions.
The plates were incubated at 30° C. for 1 hr with shaking. The reacted contents were removed and the plates were sequentially washed three times with a 1×PBS stop buffer (300 μL without Magnesium and Calcium) and 100 mM EDTA. After the final wash, the same stop buffer (200 μL) was added to the wells. The plates were then sealed and read on the TopCount scintillation counter.
Test compounds were assayed in triplicate at 16 concentrations at half-log dilutions starting at 200 uM. A maximum and minimum signal for the assay was determined on each plate. The percent inhibition of a test compound was calculated according to the formula: […]
For a series of test concentrations, the IC50 was derived by graphing percent inhibition against the log of the concentrations tested for a given compound. For those compounds without an IC50, the inhibition values in percent are shown at a test concentration of 2 μM. For compounds with multiple values, each value represents a separate assay result.

For another experiment, the target named is T2, HER-2 (Homo sapiens, UniProt P04626).
T2 construct: His6 with thrombin site (N); purchased Proqinase (Freiburg, Germany)
Description: HER-2 Kinase Assay. The note with it: for IC50: value in parentheses; for inhibition at 1 µM: test concentration of 1 μM. The format is biochemical. As to the method:
The HER-2 kinase used was purified at Proqinase (Freiburg, Germany) from a construct that consisted of a fusion of GST (Glutathione-S-Transferase), HIS6-Thrombin and the nucleotides encoding amino acids 679 to 1255 of HER-2 (Accession Number M11730).
A mixture of a 10× kinase reaction buffer (600 mM Hepes at pH 7.5, 30 mM Magnesium Chloride, 0.03 mM Sodium Vanadate and 500 μg/mL PEG 20,000), DTT (1.2 mM final from a 10 mM stock), APT (1 μM from a 10 mM stock), biotinylated polyGluTyr (1.5 ng/μL final from stock of 1 μg/μL) prepared by Upstate Biotechnologies, Lake Placid, N.Y.), Manganese Chloride (3 mM final from a 1 M stock), γ-^33P-ATP (10 μCl/μL stock) and water (70 μL/well) was added to each well of a Streptavidin Flashplate (Cat. # SMP103, NEN, Boston, Mass.).
Test compound stock (1 μL) was added to the appropriate wells. Diluted GSTHER2 kinase (6.7 ng/μL diluted into 50 mM Tris-HCl at pH 8.0 and 0.1% bovine serum albumin) (30 μL) was added (total volume of 200 ng/well) to initiate the reactions.
The reaction plates were incubated at 30° C. for 1 hr. The reaction was terminated by aspirating the reaction mixture from the plate wells and washing the wells three times with a 1×PBS stop buffer (300 μL) and 100 mM EDTA. After the final wash, the same stop buffer (200 μL) was again added to the wells. The plates were then sealed and read on the TopCount scintillation counter.
The Her-2 inhibition values were derived according to the procedure described in Example 164 and are shown as percent in Table 4 at a test concentration of 1 μM. For those compounds with an IC50, the IC50 value in μM is shown in parentheses. For compounds with multiple test values, each value represents a separate assay result.

Molecules are shown by their SMILES.

T2 sequence (P04626 679-1255): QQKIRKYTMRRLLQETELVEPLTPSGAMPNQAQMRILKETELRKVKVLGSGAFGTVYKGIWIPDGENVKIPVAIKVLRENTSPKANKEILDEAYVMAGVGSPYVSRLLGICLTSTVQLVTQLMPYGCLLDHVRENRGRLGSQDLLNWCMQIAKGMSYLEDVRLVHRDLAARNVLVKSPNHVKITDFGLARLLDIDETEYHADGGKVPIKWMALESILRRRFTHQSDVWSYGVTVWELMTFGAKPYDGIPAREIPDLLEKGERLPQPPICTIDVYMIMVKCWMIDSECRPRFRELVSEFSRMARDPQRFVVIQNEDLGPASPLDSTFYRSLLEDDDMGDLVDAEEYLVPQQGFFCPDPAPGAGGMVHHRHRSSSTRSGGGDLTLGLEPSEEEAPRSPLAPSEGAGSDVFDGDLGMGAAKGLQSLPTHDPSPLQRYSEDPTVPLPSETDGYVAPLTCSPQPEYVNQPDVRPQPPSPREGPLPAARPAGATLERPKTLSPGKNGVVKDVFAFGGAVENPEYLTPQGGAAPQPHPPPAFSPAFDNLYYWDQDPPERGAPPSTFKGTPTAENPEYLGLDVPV
T1 sequence (P00533 669-1210 limits assumed): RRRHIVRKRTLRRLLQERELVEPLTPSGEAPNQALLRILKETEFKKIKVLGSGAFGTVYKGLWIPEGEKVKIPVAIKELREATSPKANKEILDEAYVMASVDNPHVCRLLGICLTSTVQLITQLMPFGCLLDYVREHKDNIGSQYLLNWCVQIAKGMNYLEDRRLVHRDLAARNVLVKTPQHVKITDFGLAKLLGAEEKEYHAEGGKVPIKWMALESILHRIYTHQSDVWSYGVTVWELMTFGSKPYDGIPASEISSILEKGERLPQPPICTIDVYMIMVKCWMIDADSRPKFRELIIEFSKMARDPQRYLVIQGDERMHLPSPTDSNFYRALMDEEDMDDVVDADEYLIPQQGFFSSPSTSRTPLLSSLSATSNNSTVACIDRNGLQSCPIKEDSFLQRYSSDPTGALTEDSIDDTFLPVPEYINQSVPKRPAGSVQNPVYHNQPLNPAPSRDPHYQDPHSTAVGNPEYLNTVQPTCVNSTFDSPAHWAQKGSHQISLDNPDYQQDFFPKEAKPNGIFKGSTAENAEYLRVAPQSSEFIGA

Take `CC(C)(C)OC(=O)NC1CCN(Cc2ccc(NC(=O)c3sc4ncnc5c4c3NC(=O)N5c3ccc(Oc4ccccc4)cc3)cc2)CC1` [Cpd 258, [1-(4-{[4-oxo-5-(4-phenoxy-phenyl)-4,5-dihydro-3H-1-thia-3,5,6,8-tetraaza-acenaphthylene-2-carbonyl]-amino}-benzyl)-piperidin-4-yl]-carbamic acid tert-butyl ester]: the IC50 at EGFR was found to be 53 nM; at HER-2 it was 58 nM.
On to `O=C(Nc1ccc(CN2CCCC2)cc1)c1sc2ncnc3c2c1NC(=O)N3c1ccc(F)c(Cl)c1` [Cpd 7, 5-(3-chloro-4-fluoro-phenyl)-4-oxo-4,5-dihydro-3H-1-thia-3,5,6,8-tetraaza-acenaphthylene-2-carboxylic acid (4-pyrrolidin-1-ylmethyl-phenyl)-amide], for which the IC50 against EGFR stood at 7 nM. The compound also gave an inhibition at 1 µM against HER-2 of 69%.
Regarding `CC1CCN(Cc2ccc(NC(=O)c3sc4ncnc5c4c3NC(=O)N5c3ccc(Oc4ccccc4)cc3)cc2)CC1` [Cpd 255, 4-oxo-5-(4-phenoxy-phenyl)-4,5-dihydro-3H-1-thia-3,5,6,8-tetraaza-acenaphthylene-2-carboxylic acid [4-(4-methyl-piperidin-1-ylmethyl)-phenyl]-amide], the IC50 worked out at 41 nM on EGFR and 24 nM on HER-2.
Consider `COc1ccc(Cl)cc1N1C(=O)Nc2c(C(=O)Nc3ccc(CN4CCCCC4)cc3)sc3ncnc1c23` [Cpd 72, 5-(5-chloro-2-methoxy-phenyl)-4-oxo-4,5-dihydro-3H-1-thia-3,5,6,8-tetraaza-acenaphthylene-2-carboxylic acid (4-piperidin-1-ylmethyl-phenyl)-amide], for which the inhibition at 2 µM on EGFR amounted to 57%. Further, 1 µM produced 4% inhibition on HER-2.
On to `O=C(Nc1ccc(CN2CCOCC2)cc1)c1sc2ncnc3c2c1NC(=O)N3c1ccc(OCc2cccs2)c(Cl)c1` [Cpd 226, 5-[3-chloro-4-(thiophen-2-ylmethoxy)-phenyl]-4-oxo-4,5-dihydro-3H-1-thia-3,5,6,8-tetraaza-acenaphthylene-2-carboxylic acid (4-morpholin-4-ylmethyl-phenyl)-amide], for which the IC50 against EGFR is 33 nM; at HER-2, 27 nM.
Turning to `O=C(NCCc1ccccn1)c1sc2ncnc3c2c1NC(=O)N3c1ccc(Oc2ccccc2)cc1` [Cpd 217, 4-oxo-5-(4-phenoxy-phenyl)-4,5-dihydro-3H-1-thia-3,5,6,8-tetraaza-acenaphthylene-2-carboxylic acid (2-pyridin-2-yl-ethyl)-amide], the IC50 at EGFR is 225 nM; on HER-2, over 100000 nM.
The matching figures for `COc1ccc(N2C(=O)Nc3c(C(=O)Nc4ccc(CN5CCOCC5)cc4)sc4ncnc2c34)cc1Br` [Cpd 181, 5-(3-bromo-4-methoxy-phenyl)-4-oxo-4,5-dihydro-3H-1-thia-3,5,6,8-tetraaza-acenaphthylene-2-carboxylic acid (4-morpholin-4-ylmethyl-phenyl)-amide]: 887 nM and 2190 nM.
On to `O=C(Nc1ccc(CN2CCCCC2)cc1)c1sc2ncnc3c2c1NC(=O)N3c1ccc(OCc2cccs2)c(Cl)c1` [Cpd 227, 5-[3-chloro-4-(thiophen-2-ylmethoxy)-phenyl]-4-oxo-4,5-dihydro-3H-1-thia-3,5,6,8-tetraaza-acenaphthylene-2-carboxylic acid (4-piperidin-1-ylmethyl-phenyl)-amide], for which the IC50 against EGFR is 19 nM; at HER-2, 33 nM.
For the compound `COc1cc(NC(=O)c2sc3ncnc4c3c2NC(=O)N4c2ccc(OCc3ccccn3)c(Cl)c2)ccc1OCCN1CCOCC1` [Cpd 86, 5-[3-chloro-4-(pyridin-2-ylmethoxy)-phenyl]-4-oxo-4,5-dihydro-3H-1-thia-3,5,6,8-tetraaza-acenaphthylene-2-carboxylic acid [3-methoxy-4-(2-morpholin-4-yl-ethoxy)-phenyl]-amide], the IC50 is 83 nM at EGFR and 350 nM at HER-2.
With `COc1cc(NC(=O)c2sc3ncnc4c3c2NC(=O)N4c2ccc(Br)cc2)ccc1CN1CCOCC1` [Cpd 201, 5-(4-bromo-phenyl)-4-oxo-4,5-dihydro-3H-1-thia-3,5,6,8-tetraaza-acenaphthylene-2-carboxylic acid (3-methoxy-4-morpholin-4-ylmethyl-phenyl)-amide], the IC50 against EGFR came to 106 nM; on HER-2, 92 nM.
`COc1cc(NC(=O)c2sc3ncnc4c3c2NC(=O)N4c2cccc(Oc3ccccc3)c2)ccc1CN1CCOCC1` [Cpd 200, 4-oxo-5-(3-phenoxy-phenyl)-4,5-dihydro-3H-1-thia-3,5,6,8-tetraaza-acenaphthylene-2-carboxylic acid (3-methoxy-4-morpholin-4-ylmethyl-phenyl)-amide]: the IC50 turned out to be 89 nM on EGFR and 130 nM on HER-2.
Turning to `COc1cc(NC(=O)c2sc3ncnc4c3c2NC(=O)N4c2ccc(Sc3ccccc3)cc2)ccc1CN1CCCCC1` [Cpd 224, 4-oxo-5-(4-phenylsulfanyl-phenyl)-4,5-dihydro-3H-1-thia-3,5,6,8-tetraaza-acenaphthylene-2-carboxylic acid (3-methoxy-4-piperidin-1-ylmethyl-phenyl)-amide], the IC50 against EGFR was determined as 14 nM; at HER-2, 27 nM.
Consider `O=C(Nc1ccc(N2C(=O)Nc3c(C(=O)Nc4ccc(CN5CCOCC5)cc4)sc4ncnc2c34)cc1)c1ccccc1` [Cpd 248, 5-(4-benzoylamino-phenyl)-4-oxo-4,5-dihydro-3H-1-thia-3,5,6,8-tetraaza-acenaphthylene-2-carboxylic acid (4-morpholin-4-ylmethyl-phenyl)-amide], for which the inhibition at 2 µM on EGFR was 8%. Further, the IC50 at HER-2 was over 100000 nM.
Consider `O=C(Nc1ccc(N2C(=O)Nc3c(C(=O)Nc4ccc(CN5CCCCC5)cc4)sc4ncnc2c34)cc1)c1ccccc1` [Cpd 249, 5-(4-benzoylamino-phenyl)-4-oxo-4,5-dihydro-3H-1-thia-3,5,6,8-tetraaza-acenaphthylene-2-carboxylic acid (4-piperidin-1-ylmethyl-phenyl)-amide], for which the inhibition at 2 µM on EGFR was 9%. At HER-2, the IC50 was over 100000 nM.
For the compound `CN1CCN(Cc2ccc(NC(=O)c3sc4ncnc5c4c3NC(=O)N5c3ccc(OCc4cccc(F)c4)c(Cl)c3)cc2)CC1` [Cpd 252, 5-[3-chloro-4-(3-fluoro-benzyloxy)-phenyl]-4-oxo-4,5-dihydro-3H-1-thia-3,5,6,8-tetraaza-acenaphthylene-2-carboxylic acid [4-(4-methyl-piperazin-1-ylmethyl)-phenyl]-amide], the IC50 against EGFR is 161 nM; at HER-2, 610 nM.
